Laboratory results: patent US8273708B2, “Methods of treatment of ocular surface pathologies” (priority 2004, dated 2012)
“Also recorded” adds a separate entry of the source.

Tests used:
Assay type in all cases: in vivo, rat
male Wistar rats [1] = assay: Ocular inflammation induced by corneal instillation of P48/80: total MPO activity in the whole eye; conditions: ML-7 1 mg/kg IP, two pretreatments the day before and one two hours before instillation
Procedure: FIG. 1: Experimental protocol for example 1.
The corneal irritation model which was used has been validated in the rat (Allansmith et al., Acta Ophtalmol, 1989; 192S: 145-153) and in the rabbit (Bucolo et al., J. Ocul. Pharmacol, 1993; 9: 321-332).
Animals: Three groups of eight male Wistar rats (200-250 g) housed in individual cages were used. Animals were given a standard diet (UAR, Villemoisson, Epinay sur Orge) and drinking water ad libitum.
The control eye was instilled with 10 μl of 1×PBS.
(§1) Assay of myeloperoxidase activity: The eyes were excised and homogenized in phosphate buffer with the aid of a polytron. They were then subjected to three freeze/thaw cycles (liquid nitrogen/37° C. water bath). After centrifugation at 10,000 rpm for 15 min at 4° C., the pellets were resuspended in HTAB buffer and sonicated for 10 sec. After a second centrifugation, MPO activity was assayed from the supernatant in a reaction buffer containing O-dianisidine hydrochloride and 0.0005% hydrogen peroxide. The change in absorbance at 460 nm was measured on a spectrophotometer.
They were sacrificed six hours after instillation and the eyes were excised in order to assay total myeloperoxidase (MPO) activity in the whole eye (FIG. 1).

[2] = system: corneal epithelial tight junctions; assay: Corneal tight junction permeability by surface biotinylation after benzalkonium chloride
Excerpt: Images obtained by fluorescence of the external corneal surface in the rat after ex vivo avidin-fluorescein biotinylation of the whole eye by avidin-fluorescein following cryosection (6 μm) (external side of cornea facing up)
(§2) Animals: Four groups of male Wistar rats (Janvier, Le Genest St Isle, France), weighing 300-350 g were used: BAK+sodium carmellose, BAK+ML-7, PBS+sodium carmellose, PBS+ML-7; PBS and sodium carmellose being the solvents for benzalkonium (BAK) and ML-7, respectively.
(§3) ML-7 pretreatment: Animals received a local application of ML-7 (Sigma, France) 24 hours, 12 hours and 30 minutes before chemical induction of ocular inflammation. Thus, each eye was treated with 100 μg of ML-7 in 10 μl of eye drops (sodium carmellose 4 mg/0.4 ml) or with 10 μl of eye drops alone.
(§4) Inflammation induction: Thirty minutes after the third application of ML-7 or the eye drops alone, each eye was treated with 10 μl of 0.5% benzalkonium chloride (Sigma-Aldrich, Steinheim, Germany) in PBS or 10 μl of PBS alone. After 10 minutes, the eyes of all the rats were rinsed with 250 μl of sterile water.
(§5) Eye excision: Six hours after application of benzalkonium chloride or PBS, the animals were anesthetized with pentobarbital (80 mg/kg IP) (Ceva Santé Animale, Libourne, France), sacrificed by decapitation and the eyes were immediately excised to be frozen directly or after surface biotinylation (tight junction permeability test).
Measurement of tight junction permeability—Surface biotinylation: The permeability of tight junctions in the cornea was evaluated by biotinylation of surface proteins. The chosen biotinylation reagent is water-soluble and contains an aminocaproyl spacer group, which lowers steric hindrance during avidin coupling. Immediately after excision, the eyes were incubated for 30 minutes at room temperature with gentle stirring in a solution containing sodium biotinamidohexanecarboxylate and 3-sulfó-N-hydroxysuccinimide at 1 mg/mL, in PBS (Sigma-Aldrich, Steinheim, Germany). The eyes were then rinsed three times in PBS, embedded in protective tissue freezing medium (Tissue Tek® OCT compound, Sakura Finetek, Inc., CA, USA), frozen in liquid nitrogen and stored at −80° C. Six micrometer thick slices were prepared with a cryostat and fixed in cold acetone for 10 minutes. After drying, the slices were labelled for 30 minutes in the dark with avidin D-FITC (Vector Laboratories, Inc., Burlingame, Calif., USA) diluted 250-fold in PBS-Tween containing 1% BSA, then rinsed three times for 5 minutes in PBS-Tween, in the dark. The slides were then mounted in fluorescence medium (Cappel fluorostab embedding medium, MP Biomedicals, Inc., Aurora, Ohio, USA) and examined under a Nikon Eclipse 90 i fluorescence microscope equipped with a Nikon DXM1200F digital camera. The images were analyzed with Nikon Lucia image analysis software release 4.8. As no significant differences in corneal thickness were observed between the different experimental groups (102±10 μm, 110±9 μm, 115±13 μm and 124±8 μm for BAK+sodium carmellose, BAK+ML-7, PBS+sodium carmellose and PBS+ML-7 groups, respectively), the depth of fluorescence labelling reflects the permeability of external corneal epithelial tight junctions to the biotinylation reagent.

male Wistar rats [3] = assay: Ocular inflammation (neutrophil infiltration) induced by corneal instillation of benzalkonium chloride: total MPO activity in the eye
Procedure: FIG. 3: Experimental protocol for example 2. Animals received two pretreatments with ML-7 [1 mg/kg given by the intraperitoneal (IP) route] on the day before instillation of 0.1% BAK (in the morning and evening) and one pretreatment two hours before instillation. They were sacrificed six hours after rinsing and the eyes were excised in order to assay MPO activity.
The benzalkonium salt (BAK) corneal irritation model has been widely used in both in vitro and in vivo studies. The protocol is based on an in vitro study (Xu et al., 2000) adapted to in vivo conditions in the rat after preliminary tests to adjust times and concentrations.
Animals: Male Wistar rats (200-250 g) housed in individual cages were used. Animals were given a standard diet (UAR, Villemoisson, Epinay sur Orge) and drinking water ad libitum.
Inflammation induction: Inflammation was induced by instillation in the eye of 10 μl of 0.1% BAK solution (1 mg/ml). The control eye was instilled with 10 μl of 1×PBS. Ten minutes after instillation, the eyes were rinsed with 1 ml of sterile water.
as §1, with “in” for “from”
Experimental protocol: Animals received two pretreatments with ML-7 (1 mg/kg IP) on the day before instillation of 0.1% BAK (morning and evening) and one pretreatment two hours before instillation. They were sacrificed six hours after rinsing and the eyes were excised in order to assay total myeloperoxidase (MPO) activity (FIG. 3).

male Wistar rats [4] = assay: Polynuclear eosinophil infiltration induced by benzalkonium chloride, Direct Red count in the venous plexus region of the sclera; conditions: for number of polynuclear eosinophils in the venous plexus region of the sclera after benzalkonium chloride: 10 μl of 0.5% benzalkonium chloride, after six hours
Excerpt: Upper panel: histological images after Direct Red staining. Lower panel: eosinophil count in venous plexus of sclera, density per square mm (means±SD; n=8)
as §2, §3, §4, §5
Measurement of polynuclear eosinophil infiltration: Polynuclear eosinophil leukocytes were specifically stained with Direct Red and counted in the venous plexus region of the sclera. […] Eosinophils, stained bright pink against a light background, were counted in the venous plexus region of the sclera under a Nikon Eclipse 90 i microscope equipped with a Nikon DXM1200F digital camera. The area of the zone to be counted was determined with Nikon Lucia image analysis software release 4.8 and counts were expressed as the number of eosinophils per mm^2. […]

## O=S(=O)(c1cccc2c(I)cccc12)N1CCCNCC1 [ML-7, 1-(5-iodonaphthalene-1-sulfonyl)-1H-hexahydro-1,4-diazepine]
Male Wistar rats [1]
  effect of ML-7 on the P48/80-induced increase in MPO activity: prevented; also recorded: inhibited
[2]; BAK+ML-7 group
  corneal thickness: 110±9 μm
[2]; PBS+ML-7 group
  corneal thickness: 124±8 μm
[2]; local pretreatment, 100 μg ML-7 per eye, 24 hours, 12 hours and 30 minutes before BAK
  effect of ML-7 on the BAK-induced increase in diffusion and thickening of the fluorescent zone: suppressed
Male Wistar rats [3]; ML-7 1 mg/kg IP, two pretreatments the day before and one two hours before instillation
  effect of ML-7 on the benzalkonium chloride-induced increase in MPO activity: suppressed; also recorded: inhibited
Male Wistar rats [4]; local application, 100 μg ML-7 in 10 μl eye drops, 24 hours, 12 hours and 30 minutes before BAK
  effect of ML-7 on benzalkonium chloride-induced polynuclear eosinophil infiltration: significantly inhibited

## benzalkonium chloride
[2]; 10 μl of 0.5% benzalkonium chloride, after six hours
  effect of benzalkonium chloride on corneal epithelial tight junctions (fluorescent penetration): opening of corneal epithelial tight junctions
[2]; BAK+sodium carmellose group
  corneal thickness: 102±10 μm
Male Wistar rats [3]; 10 μl of 0.1% BAK, rinsed after 10 minutes, after six hours
  total MPO activity in the eye after benzalkonium chloride: 26.4±7.2 U/g.protein
Male Wistar rats [3]; versus baseline 8.2±1.9 U/g.protein, after six hours
  increase in total MPO activity after benzalkonium chloride: 321%
Male Wistar rats [4]
  number of polynuclear eosinophils in the venous plexus region of the sclera after benzalkonium chloride: highly significant increase
Male Wistar rats [4]; listed as BAK
  number of polynuclear eosinophils in the venous plexus region of the sclera after benzalkonium chloride: highly significant
